Assay results reported in patent US9443060B2, “Method and system to provide personalized pharmaceutical compositions and dosages” (Volant Holdings GMBH, priority 2009, dated 2016).

Key:
[1] = initiation of insulin in T2D patients; duration and intensity dependent; cited from earlier work
[2] = tested on: hepatic gluconeogenesis (GNG); design: endogenous glucose output: unit not given here; settings: Gastaldelli, euglycemic hyperinsulinemic clamp, plasma insulin 113±6 μU/ml, T2D, cited from earlier work
metabolic syndrome = test: FS index / neural net model of cardiovascular risk in metabolic syndrome patient populations; format: in vivo, human
Procedure: The FS index of MS comprises the following parameters: Fasting Blood Glucose, Fasting Insulin, HBA1c, BMI, AST, Triglycerides, Glucose Supply-Demand (S/D) index, and in certain cases, Proinsulin. Each parameter was mathematically arranged to increase as MS worsened, and weighted approximately equally in the prediction of MS progression and risk for CV events. […] FS index values were calculated from serial laboratory and clinical data over timeframes ranging between 2 and 10 years.
Neural Net Models and Data Display Methods. […] Unless otherwise stated, standard deviations (z-score) vs. time are presented in the individual and mean population graphics.
For purposes of analysis, clinical and laboratory parameters were converted into modified z-scores as follows: • A mean normal value (described as “mean” in the following) was selected based on review of literature and various published laboratory compendia. The Standard Deviation (SD) of each parameter was set to one half of the normal range. The modified z-score is calculated as follows: z=(Patient value−“mean”)/SD • On the graphs, the z-score is reported as the number of SD.
The FS index considered the following: Fasting Blood Glucose, Fasting Insulin, HBA1c, BMI, AST, Triglycerides, Glucose Supply-Demand (S/D) index, and in some cases Proinsulin. […] Each of these parameters was mathematically arranged to increase as Metabolic Syndrome worsened, and weighted approximately equally in the prediction of Metabolic Syndrome progression and risk for CV events.
The FS index was then applied to well-studied patient populations using a neural net model.
[formula] Where FBG is Fasting Blood Glucose in mg/dl and normal value is 100 mg/dl TG is Triglycerides in mg/dl normal value is <150 HBA1c is hemoglobin A1c in %, normal value is <6% BMI is body mass index as kg/m2 where a normal value is 20 and obese begins above 25 AST is Aspartate Transferase also called SGOT in IU/liter and a normal value is 5-50 FB insulin is fasting Blood insulin concentration in nmol/liter, a normal value is 4.0

Row | Molecule | weight gain [1] | plasma C5:^2H2O ratio ([2]; basal 0.60±0.02) | endogenous glucose output ([2]; basal 15.2±0.4) | FS index response to treatment (metabolic syndrome; normal 20-50, 61 T2D on metformin, 100 RYGB, 18 Brake, 33 exenatide, 12 sitagliptin patients) | other parameters of metabolic syndrome (BMI/weight, HBSD, lipids, NAFLD, blood pressure, insulin) (metabolic syndrome; same patient populations as FS index)
1 | insulin | 5-10% | 0.25±0.02 | 7.1±0.9 | – | –
2 | N[C@@H](CC(=O)N1CCn2c(nnc2C(F)(F)F)C1)Cc1cc(F)c(F)cc1F [Sitagliptin] | – | – | – | beneficial response to the diabetes component of metabolic syndrome | weight slowly increases or stays the same, lipid abnormalities do not resolve and NAFLD abnormalities do not resolve
